In patent US20240300886A1, “ARYLCYCLOHEXYLAMINE DERIVATIVES AND THEIR USE IN THE TREATMENT OF PSYCHIATRIC DISORDERS” (GILGAMESH PHARMACEUTICALS, INC., priority 2021, published 2024):
Like-named read-outs stand apart in the source and are kept apart here.

Experiments:
[1] = molecular target: serotonin transporter (SERT) (Homo sapiens (Human), UniProt P31645); assay: SERT fluorescent substrate uptake inhibition in transfected cells; type: cell-based; conditions: for inhibition at 10 µM: stably transfected cells expressing SERT; for ability to inhibit SERT uptake (in words): transfected cells, 10 μM
Procedure: The ability of disclosed compounds to inhibit uptake of monoamines by the serotonin transporter (SERT) was measured using a fluorescent substrate uptake assay in transfected cells (Table 15). […] Considering that inhibitors of SERT are well known to have antidepressant and anxiolytic effects and are among the most commonly prescribed drugs for mood disorders (e.g. fluoxetine, sertraline, etc.), blockade of SERT by certain compounds of the present disclosure is expected to synergize with their NMDAR inhibition to increase therapeutic activity for treating depression and related disorders. […] Further, the ability to tune the ratio between SERT and NMDAR is useful to obtain the optimal therapeutic profile depending on the intended clinical indication.
Uptake Inhibition. The ability of test compounds to block monoamine uptake by SERT was determined using the Neurotransmitter Transporter Uptake Assay Kit manufactured by Molecular Devices (Cat #R8173). Briefly, stably transfected cells expressing SERT were grown and plated into 384-well plates at a concentration of 20,000 cells per well. Plates were then incubated for 16-20 h at 37° C. and 5% CO2. The medium was then aspirated and replaced with 25 μL of assay buffer (20 mM HEPES in HBSS, containing 0.1% BSA) containing the test compounds at the appropriate concentrations. Plates were then centrifuged at 300 rpm for 15 s and then incubated at 37° C. for 30 minutes. At this time, 25 μL of the proprietary fluorescent dye solution was added, the plates were incubated at 37° C. for 60 minutes, and then fluorescence was quantified on a plate reader (excitation wavelength=440 nm, emission wavelength=520 nm). The proprietary dye solution contains a mixture of 1) a fluorescent dye that mimics the endogenous substrate of SERT and is thereby actively transported to the intracellular compartment in the absence of an inhibitor and 2) a masking dye that inhibits the fluorescence of dye 1 in the extracellular compartment. Therefore, the overall fluorescence of the system increases as the fluorescent dye is transported into the cells.

[2] = Metabolic stability in cynomolgus monkey liver microsomes (CLM); type: in vitro ADME, cynomolgus monkeys; conditions: for half-life at 1 μM / microsomal CLint at 1 μM: male, cynomolgus monkey, pooled cynomolgus monkey liver microsomes, pH 7.4, 1 μM compound, 0.50 mg protein/mL, NADPH
Procedure: CLM Stability. Pooled CLM from male cynomolgus monkeys (Corning 452413) were used. Microsomal incubations were carried out in multi-well plates. Liver microsomal incubation medium consisted of PBS (100 mM, pH 7.4), MgCl2 (1 mM), and NADPH (1 mM), with 0.50 mg of liver microsomal protein per mL. Control incubations were performed by replacing the NADPH-cofactor system with PBS. Test compounds (1 μM, final solvent concentration 1.0%) were incubated with microsomes at 37° C. with constant shaking. Six time points over 60 minutes were analyzed, with 60 μL aliquots of the reaction mixture being drawn at each time point. The reaction aliquots were stopped by adding 180 μL of cold (4° C.) acetonitrile containing 200 ng/mL tolbutamide and 200 ng/mL labetalol as internal standards (IS), followed by shaking for 10 minutes, and then protein sedimentation by centrifugation at 4,000 rpm for 20 minutes at 4° C. Supernatant samples (80 μL) were diluted with water (240 μL) and analyzed for parent compound remaining using a fit-for-purpose liquid chromatography-tandem mass spectrometry (LC-MS/MS) method.
Data Analysis. The elimination constant (kel), half-life (t1/2) and intrinsic clearance (Clint) were determined in a plot of […] versus time, using linear regression analysis.

[3] = Oral bioavailability in mice, Method B (plasma and brain PK); type: in vivo, C57BL/6 mice; conditions: for half-life / Cmax / AUC(0-inf): male, C57BL/6; for half-life / Cmax / AUC(0-inf) / AUC0-inf (iv) / AUC0-inf (po) / F: Method B; for AUC(0-inf) / AUC0-inf (iv) / AUC0-inf (po): values represent AUC0-last; for F: 1 mg/kg
Procedure: Animals. Male C57BL/6 mice were used in these studies. Animals were randomly assigned to treatment groups and were fasted for 4 h before dosing.
Drugs. Test compounds were dissolved in a vehicle consisting of normal saline (for compounds used as the HCl salt) or normal saline slightly acidified with aq. HCl (for freebase compounds). They were then administered intravenously (iv) or orally (po) at a dose of 1 or 10 mg/kg (calculated based on freebase), as indicated, and at a volume of 5 mL/kg body weight. Compounds were tested as the racemates or pure enantiomers, as indicated.
Sample Collection and Bioanalysis. Blood samples (approximately 60 μL) were collected under light isoflurane anesthesia (Surgivet®) from the retro orbital plexus at 0.08, 0.25, 0.5, 1, 2, 4, 8, and 24 h (4 animals per time point). Immediately after blood collection, plasma was harvested by centrifugation at 4,000 rpm for 10 min at 4° C. and samples were stored at −70±10° C. until bioanalysis. Following blood collection, animals were immediately sacrificed, the abdominal vena-cava was cut open, and the whole body was perfused from the heart using 10 mL of normal saline, and brain samples were collected from all animals. After isolation, brain samples were rinsed three times in ice-cold normal saline (for 5-10 seconds/rinse using ˜5-10 mL, normal saline in disposable petri dish for each rinse) and dried on blotting paper. Brain samples were homogenized using ice-cold phosphate-buffered saline (pH 7.4). Total homogenate volume was three times the tissue weight. All homogenates were stored at −70±10° C. until bioanalysis. For bioanalysis, 25 μL aliquots of plasma/brain study samples or spiked plasma/brain calibration standards were added to individual pre-labeled micro-centrifuge tubes followed by 100 μL of an internal standard solution (glipizide, 500 ng/mL in acetonitrile) except for blanks, where 100 μL of acetonitrile was added. Samples were vortexed for 5 minutes and then centrifuged for 10 minutes at 4,000 rpm at 4° C. Following centrifugation, 100 μL of each clear supernatant was transferred to a 96 well plate and analyzed with a fit-for-purpose LC-MS/MS method, with authentic samples of each analyte used for calibration and identification.
Data Analysis. Pharmacokinetic parameters were estimated using the non-compartmental analysis tool of Phoenix® WinNonlin software (Ver 8.0).

[4] = Stability in liver microsomes (Example 21), SD rat; type: in vitro ADME; conditions: male, pH 7.4, 0.5 mg/mL protein
Procedure: General Procedure. Briefly, test compounds (final concentration 1 μM) were incubated in duplicate with liver microsomes from male animals of the indicated species (final protein concentration 0.5 mg/mL) in 50 mM sodium phosphate buffer (pH 7.4) with or without NADPH (1 mM). Total incubation volume was 500 μL. At 0, 5, 15, 30, and 60 min, aliquots of 50 μL were withdrawn, quenched with acetonitrile (150 μL), and analyzed for parent compound remaining using a fit-for-purpose LC-MS/MS method. Intrinsic clearance and half-life were calculated. Clearance values below zero were rounded to zero.

[5] = mouse brain, 1 mg/kg iv, read-out: t1/2 (iv)
[6] = mouse plasma, 1 mg/kg iv, read-out: t1/2 (iv)
[7] = mouse plasma, 1 mg/kg iv, read-out: AUC0-inf (iv) (converted)
[8] = mouse plasma, 1 mg/kg po, read-out: t1/2 (po)
[9] = mouse plasma, 1 mg/kg po, read-out: AUC0-inf (po) (converted)
[10] = mouse brain, calculated based on brain exposure (AUC0-last)
[11] = mouse plasma, based on AUC0-last
[12] = mouse brain, 1 mg/kg po, read-out: t1/2 (po)

Structure (SMILES)	inhibition at 10 µM [1] [%]	half-life at 1 μM [2] [min]	microsomal CLint at 1 μM [2] [µL/min/mg]	half-life [3, 5] [min]	Cmax ([3]; mouse brain, 1 mg/kg po) [ng/g]	half-life [3, 6] [min]	AUC(0-inf) [3, 7] [ng·h/mL]	Cmax ([3]; mouse plasma, 1 mg/kg po) [ng/mL]	half-life [3, 8] [min]	AUC(0-inf) [3, 9] [ng·h/mL]	AUC0-inf (iv) ([3]; mouse brain, 1 mg/kg iv)	AUC0-inf (po) ([3]; mouse brain, 1 mg/kg po)	F [3, 10] [%]	F [3, 11] [%]	stability in CLM (in words) [2]	half-life [3, 12] [min]	brain exposure after oral administration compared to enantiomer 2S ([3]; mice)	ability to inhibit SERT uptake (in words) [1]	microsomal CLint at 1 μM [4] [µL/min/mg]
N[C@@]1(c2ccc(F)cc2)CCCCC1=O [Compound 1R, (R)-2-amino-2-(4-fluorophenyl)cyclohexan-1-one]	10.4																		
N[C@]1(c2ccc(F)cc2)CCCCC1=O [Compound 1S, (S)-2-amino-2-(4-fluorophenyl)cyclohexan-1-one]	14.9	> 145	< 9.6	36.6	82.2	86.4	501	394	82.2	470	14,776 ng*min/g	6,557 ng*min/g	44	94					
CN[C@@]1(c2ccc(F)cc2)CCCCC1=O [Compound 2R, (R)-2-(4-fluorophenyl)-2(methylamino)cyclohexan-1-one]	58.8	62.3	22.2	23.4	177	45	96.3	53.6	29.4	38.8	17,791 ng*min/g	5,890 ng*min/g	33	40	substantially more stable	36	substantially higher brain exposure	substantial inhibitor, activity in the micromolar range	16.2
CN[C@]1(c2ccc(F)cc2)CCCCC1=O [Compound 2S, (S)-2-(4-fluorophenyl)-2-(methylamino)cyclohexan-1-one]	36.4	38.3	36.1	21.6	80.4	54.6	119	51.7	50.4	46.6	21,532 ng*min/g	4,264 ng*min/g	20	39		42			14.1
N[C@]1(c2cccc(F)c2)CCCCC1=O [Compound 3S]	-0.21	83.7	16.6	26.4	112	101	608	640	29.4	542	18,797 ng*min/g	7,418 ng*min/g	39	89		40.8		inactive	
